The results in this text go back to PubChem BioAssay AID602445 (National Center for Advancing Translational Sciences (NCATS), 2012).

The test system of the data set is mouse liver microsomes with NADPH, percent remaining. The experiment in a line: High Content Assay for Compounds that inhibit the Assembly of the Perinucleolar Compartment: Mouse Liver Microsome Stability with NADPH. To be noted: stronger effect = lower value. The text has this:
The perinucleolar compartment (PNC) is a non-membrane-bound nuclear subdomain that is associated with but structurally distinct from the nucleolus. The PNC is a heritable trait, in which the number of PNCs per cell in daughter cells often mimics that of their mother cells. The PNC is heterogeneous in shape, is stable through interphase, disassembles during mitosis, and reassembles in early G1. The PNC is concentrated with newly synthesized RNA polymerase III (pol III) RNAs (MRP RNA, RNAse P H1 RNA, hY RNAs[hY1, 2, 5], Alu RNA, and SRP [7SL] RNA) and RNA binding proteins (nucleolin, PTB, CUG-BP, KSRP, Raver1, Raver2, and Rod).
Extensive in vitro studies have shown that the PNC is unique to tumor cells and preferentially forms in tumor cells derived from solid tissues. Examination of cancer cell lines from various origins and malignant capacities has shown that PNC prevalence correlates with the malignancy of tumors and has the potential to be developed as a pan-cancer prognostic marker.
Mouse liver microsomes are generated from lysed mouse liver. […]
1uM of compound in incubated in mouse liver microsome; the reference compound is ketanserin. […] Samples are analyzed with LC-MS/MS.
(Liver microsomes are a subcellular fraction often used to study metabolism.)

On to `N=c1c2c(-c3ccccc3)c(-c3ccccc3)n(Cc3ccccc3)c2ncn1C1CCC(O)CC1` (stereo unspecified), for which the percent remaining is 107%.
